What all share (assay type): biochemical
One experiment has as its target GSK-3β (AA 1-420) (Homo sapiens, UniProt P49841). Description: Inhibition of GSK-3, coupled enzyme system. The settings on record: 20 μM ATP, 30° C. As for the experimental part:
Compounds are screened for their ability to inhibit GSK-3β (AA 1-420) activity using a standard coupled enzyme system [Fox et al. Protein Sci. 1998, 7, 2249]. Reactions are carried out in a solution containing 100 mM HEPES (pH 7.5), 10 mM MgCl2, 25 mM NaCl, 300 μM NADH, 1 mM DTT and 1.5% DMSO. Final substrate concentrations in the assay are 20 μM ATP (Sigma Chemicals, St Louis, Mo.) and 300 μM peptide (American Peptide, Sunnyvale, Calif.). Reactions are carried out at 30° C. and 20 nM GSK-3β. Final concentrations of the components of the coupled enzyme system are 2.5 mM phosphoenolpyruvate, 300 μM NADH, 30 μg/ml pyruvate kinase and 10 μg/ml lactate dehydrogenase.
An assay stock buffer solution is prepared containing all of the reagents listed above with the exception of ATP and the test compound of interest. The assay stock buffer solution (175 μl) is incubated in a 96 well plate with 5 μl of the test compound of interest at final concentrations spanning 0.002 μM to 30 μM at 30° C. for 10 min. Typically, a 12 point titration is conducted by preparing serial dilutions (from 10 mM compound stocks) with DMSO of the test compounds in daughter plates. The reaction is initiated by the addition of 20 μl of ATP (final concentration 20 μM). Rates of reaction are obtained using a Molecular Devices Spectramax plate reader (Sunnyvale, Calif.) over 10 min at 30° C. The Ki values are determined from the rate data as a function of inhibitor concentration.

The next experiment deals with T1, CDK-2/Cyclin A (Homo sapiens, UniProt P24941).
T1 construct: 25 nM CDK-2/Cyclin A
Put plainly: Inhibition of CDK-2, coupled enzyme assay. To be noted: 100 μM ATP, 30° C. Here is the method:
Compounds are screened for their ability to inhibit CDK-2/Cyclin A using a standard coupled enzyme assay [Fox et al. Protein Sci. 1998, 7, 2249]. Reactions were carried out in 100 mM HEPES (pH 7.5), 10 mM MgCl2, 25 mM NaCl, 1 mM DTT and 1.5% DMSO. Final substrate concentrations in the assay are 100 μM ATP (Sigma chemicals) and 100 μM peptide (American Peptide, Sunnyvale, Calif.). Assays are carried out at 30° C. and 25 nM CDK-2/Cyclin A. Final concentrations of the components of the coupled enzyme system are 2.5 mM phosphoenolpyruvate, 350 μM NADH, 30 μg/ml pyruvate kinase and 10 μg/ml lactate dehydrogenase.
An assay stock buffer solution is prepared containing all of the reagents listed above, with the exception of CDK-2/Cyclin A, DTT and the test compound of interest. 56 μl of the test reaction is placed in a 384 well plate followed by addition of 1 μl of 2 mM DMSO stock containing the test compound (final compound concentration 30 μM). The plate is preincubated for ˜10 minutes at 30° C. and the reaction initiated by addition of 10 μl of enzyme (final concentration 25 nM). Rates of reaction are obtained using a BioRad Ultramark plate reader (Hercules, Calif.) over a 5 minute read time at 30° C. Ki values are determined according to standard methods.

Another experiment concerns the target T2, JAK-3 (Homo sapiens, UniProt P52333).
T2 sequence (P52333 1-1124): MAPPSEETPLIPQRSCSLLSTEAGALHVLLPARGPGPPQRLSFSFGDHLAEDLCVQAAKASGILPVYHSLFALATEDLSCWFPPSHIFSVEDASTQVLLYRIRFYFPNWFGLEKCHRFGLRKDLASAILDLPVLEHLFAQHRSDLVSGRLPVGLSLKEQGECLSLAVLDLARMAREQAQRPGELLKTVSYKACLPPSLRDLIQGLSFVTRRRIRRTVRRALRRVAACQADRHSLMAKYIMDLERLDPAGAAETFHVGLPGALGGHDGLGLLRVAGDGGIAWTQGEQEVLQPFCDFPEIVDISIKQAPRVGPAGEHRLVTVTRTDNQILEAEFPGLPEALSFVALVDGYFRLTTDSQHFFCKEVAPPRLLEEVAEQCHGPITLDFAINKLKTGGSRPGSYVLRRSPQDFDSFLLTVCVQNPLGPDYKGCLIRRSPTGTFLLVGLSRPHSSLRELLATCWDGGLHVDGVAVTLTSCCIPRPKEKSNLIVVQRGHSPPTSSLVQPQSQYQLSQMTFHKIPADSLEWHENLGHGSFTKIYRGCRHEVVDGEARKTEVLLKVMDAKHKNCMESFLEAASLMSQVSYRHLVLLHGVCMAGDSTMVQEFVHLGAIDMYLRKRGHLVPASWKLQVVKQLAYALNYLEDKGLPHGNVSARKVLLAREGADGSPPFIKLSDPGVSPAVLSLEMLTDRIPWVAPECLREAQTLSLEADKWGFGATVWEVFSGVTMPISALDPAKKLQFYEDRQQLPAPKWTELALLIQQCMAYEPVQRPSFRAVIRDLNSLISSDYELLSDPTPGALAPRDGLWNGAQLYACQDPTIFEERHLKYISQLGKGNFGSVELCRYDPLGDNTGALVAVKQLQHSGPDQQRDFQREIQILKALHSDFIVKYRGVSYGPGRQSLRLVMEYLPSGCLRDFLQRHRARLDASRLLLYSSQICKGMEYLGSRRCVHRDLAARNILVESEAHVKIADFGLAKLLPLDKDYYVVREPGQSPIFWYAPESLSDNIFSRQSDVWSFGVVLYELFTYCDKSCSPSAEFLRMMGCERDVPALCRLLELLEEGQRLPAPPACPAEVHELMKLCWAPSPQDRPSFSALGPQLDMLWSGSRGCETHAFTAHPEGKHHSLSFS
Description: JAK3 inhibition assay (ELISA, Poly (Glu, Ala, Tyr) coated plates). To be noted: 2 μM ATP. The essentials:
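ELISA on plates coated with poly(Glu,Ala,Tyr) 6:3:1, with 2 μM ATP, 5 mM MgCl2 and compound. Enzyme-started reaction ran 60 min at 30 °C. Phosphotyrosine detected with HRP-4G10 and TMB at 450 nm; Ki values derived.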

Among the data in US7598245B2 (Vertex Pharmaceuticals Incorporated, priority 2003, dated 2009) are Ki values, retold here.

Each structure is given as a SMILES string.

Sequence of GSK-3β (AA 1-420) (P49841 whole entry, the tested form may be a part): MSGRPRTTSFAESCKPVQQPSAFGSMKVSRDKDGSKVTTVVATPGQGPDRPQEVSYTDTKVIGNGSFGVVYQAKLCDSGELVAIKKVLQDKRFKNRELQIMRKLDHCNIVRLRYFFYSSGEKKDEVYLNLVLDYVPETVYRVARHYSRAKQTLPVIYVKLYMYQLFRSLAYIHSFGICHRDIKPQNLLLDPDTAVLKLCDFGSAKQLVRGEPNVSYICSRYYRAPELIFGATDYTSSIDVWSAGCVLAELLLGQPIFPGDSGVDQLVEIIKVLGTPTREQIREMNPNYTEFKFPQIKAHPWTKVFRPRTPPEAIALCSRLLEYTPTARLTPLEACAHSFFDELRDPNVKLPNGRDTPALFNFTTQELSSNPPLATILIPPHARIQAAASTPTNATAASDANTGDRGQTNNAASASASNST

Take `CC(=O)N1[C@H](C)CN(c2cc(-n3cnc(Nc4ccc(NC(=O)OCC(C)(C)C)cc4)n3)ccn2)C[C@@H]1C` [Compound I-91]: the Ki is above 1 µM at GSK-3β (AA 1-420), 0.5 to 1 µM on CDK-2/Cyclin A and 0.01 to 1 µM on JAK-3.
Taken in the same sequence, the figures for `CC(=O)N1CCCN(c2cc(-n3cnc(Nc4ccccc4)n3)ccn2)CC1` [Compound I-66] were above 1 µM, 0.5 to 1 µM and 0.01 to 1 µM.
Taken in the same sequence, the figures for `CCCOC(=O)Nc1ccc(Nc2ncn(-c3ccnc(N4C[C@@H](C)N(C(C)=O)[C@@H](C)C4)c3)n2)cc1` [Compound I-88] were above 1 µM, below 0.5 µM and 0.01 to 1 µM.
Taken in the same sequence, the figures for `c1ccc(-n2cnc(Nc3ccc(N4CCOCC4)cc3)n2)cc1` [Compound I-106] were above 1 µM, above 1 µM and 0.01 to 1 µM.
Regarding `c1ccc(-n2cnc(Nc3ccnc(N4CCOCC4)c3)n2)cc1` [Compound I-105], the values for the Ki on GSK-3β (AA 1-420), at CDK-2/Cyclin A and at JAK-3 were above 1 µM, 0.5 to 1 µM and 0.01 to 1 µM, respectively.
With `CC(=O)N1[C@H](C)CN(c2cc(-n3cnc(Nc4ccc(N)cc4)n3)ccn2)C[C@@H]1C` [Compound I-82], the figures for the Ki on GSK-3β (AA 1-420), at CDK-2/Cyclin A and on JAK-3 were above 1 µM, below 0.5 µM and below 0.01 µM, respectively.
As for `CC(=O)N1[C@H](C)CN(c2cc(-n3cnc(Nc4ccc(N5CCN(S(=O)(=O)c6ccc(C)cc6)CC5)cc4)n3)ccn2)C[C@@H]1C` [Compound I-92], the figures for the Ki at GSK-3β (AA 1-420), at CDK-2/Cyclin A and on JAK-3 were above 1 µM, 0.5 to 1 µM and below 0.01 µM, respectively.
Taken in the same sequence, the figures for `CCCC(=O)N1CCCN(c2cc(-n3cnc(Nc4ccccc4)n3)ccn2)CC1` [Compound I-68] were above 1 µM, above 1 µM and 0.01 to 1 µM.
The like results for `CC(=O)N1[C@H](C)CN(c2cc(-n3cnc(Nc4ccc(NC(=O)c5cccs5)cc4)n3)ccn2)C[C@@H]1C` [Compound I-80] were, in that order, above 1 µM, below 0.5 µM and 0.01 to 1 µM.
Taken in the same sequence, the figures for `CCOC(=O)c1ccc(Nc2ncn(-c3ccnc(N4C[C@@H](C)N(C(C)=O)[C@@H](C)C4)c3)n2)cc1` [Compound I-75] were above 1 µM, 0.5 to 1 µM and 0.01 to 1 µM.
Regarding `CCC(=O)N1CCCN(c2cc(-n3cnc(Nc4ccccc4)n3)ccn2)CC1` [Compound I-67], the Ki at GSK-3β (AA 1-420) is above 1 µM; on CDK-2/Cyclin A, above 1 µM; at JAK-3, 0.01 to 1 µM.
Consider `O=C(CCc1ccccc1)Nc1cc(-n2cnc(Nc3ccccc3)n2)ccn1` [Compound I-95], for which the Ki was below 0.5 µM at GSK-3β (AA 1-420), 0.5 to 1 µM at CDK-2/Cyclin A and above 1 µM on JAK-3.
Taken in the same sequence, the figures for `CC(=O)N1[C@H](C)CN(c2cc(-n3cnc(Nc4ccccc4)n3)ccn2)C[C@@H]1C` [Compound I-74] were above 1 µM, below 0.5 µM and below 0.01 µM.
Taken in the same sequence, the figures for `CN(C)CCCN(C)c1cc(-n2cnc(Nc3ccccc3)n2)ccn1` [Compound I-53] were above 1 µM, above 1 µM and above 1 µM.
The like results for `CC(=O)N1[C@H](C)CN(c2cc(-n3cnc(Nc4ccc(NC(=O)NC(C)(C)C)cc4)n3)ccn2)C[C@@H]1C` [Compound I-101] were, in that order, above 1 µM, 0.5 to 1 µM and 0.01 to 1 µM.
